Experimental data published in patent US20030100494A1, “Nerve protective drugs” (priority 1999, published 2003).
Non-standard residues stand in square brackets, D forms with d. Residues, ends and D or L forms follow the SMILES beside them. dTrp(2-Me) = Cc1[nH]c2ccccc2c1C[C@@H](N)C(=O)O; d2Nal = N[C@H](Cc1ccc2ccccc2c1)C(=O)O

Tests used:
[1] = tested on: Rat hippocampal nerve cells; test: ionomycin-induced death of cultured rat hippocampal nerve cells (WST-8 cell survival rate); conditions: for inhibition of cell death induced by ionomycin at a single concentration: each 0.1 μM, 3 μM ionomycin, FIGS. 6a and 6b
Experimental: The solution was used after dilution to predetermined concentrations with distilled water for injection (JP, Otsuka Pharmaceutical) containing 1 mg/mL of bovine serum albumin (SIGMA). Rat type ghrelin (Peptide Institute) was used after dilution to predetermined concentrations with water for injection containing 1 mg/mL of bovine serum albumin. Other reagents used were L-15 culture medium, D-MEM/F-12 culture medium, MEM culture medium, Neuro Basal culture medium, B-27 supplement, horse serum, newborn calf serum, L-glutamine (all of the foregoing products of GIBCO), L-cysteine, ionomycin, calf serum albumin, DNase I (all of the foregoing products of SIGMA), glucose, viable cell count determination reagent SF (all of the foregoing products of Nacalai tesque), and papain (Worthington Biochemical).
Animals used were fetal rats on the 20th fetal day gestated in Wistar/ST definitively pregnant rats (15-18 days pregnant, Japan SLC).
Rat hippocampal nerve cells were isolated in accordance with the method of Hatanaka et al. (Hatanaka, H. and Tsukui, H., Dev. Brain. Res. 30(1986)47). Brains were removed from Wistar/ST fetal rats (20 fetal days), and soaked in cold L-15 medium. The meninges were ablated under microscope, and the hippocampus was cut out. Hippocampal tissue was transferred into a test tube containing the L-15 medium, and the test tube was centrifuged for 3 minutes at 700 rpm. Then, the supernatant was removed, and phosphate buffer (pH 7.2) containing papain (0.5 mg/mL), bovine serum albumin (0.2 mg/mL), cysteine (0.2 mg/mL), glucose (5 mg/mL) and DNase I (0.01%) was added, followed by incubating the mixture for 15 minutes at 37° C. Then, horse serum was added, and the mixture was centrifuged for 3 minutes at 700 rpm. Then, the supernatant was removed, D-MEM/F-12 medium was added, and the cells were dispersed by pipetting. After centrifugation for 5 minutes at 700 rpm, the dispersed cells were redispersed in D-MEM/F-12 medium containing 5% newborn calf serum and 5% horse serum, and inoculated in a polyethyleneimine-coated 48-well culture plate (Nunc) at a rate of 4×10^5 cells/cm^2. The cells were cultured in a culture incubator (37° C., 5% CO2-95% air). On the 2nd day of culturing, the culture medium was replaced by Neuro Basal medium containing 2 mM of glutamine and B-27 supplement. Then, the medium was replaced at intervals of 4 days.
Cells on the 14th day of culturing were used in experiments. The culture medium was replaced by a B-27-free MEM medium, and the cells were incubated for 30 minutes. Then, a solvent (dimethyl sulfoxide) and a test compound were added, and the system was incubated for 30 minutes (procedure 1). Then, 3 μM of ionomycin was added, and the mixture was incubated for 30 minutes (procedure 2). The culture medium was washed, and replaced by Neuro Basal medium containing B-27 supplement, and the system was cultured for 18 hours (procedure 3). In examining the effect of post-treatment, the solvent and the test compound were not added in procedure 1, but added 30 minutes after replacement of the medium in procedure 3.

[2] = tested on: rat ischemia-reperfusion cerebral infarction models; test: rat ischemia-reperfusion cerebral infarction model after transient obstruction of middle cerebral artery; format: in vivo
Experimental: Preventive and therapeutic effect of KP-102 in rat ischemia-reperfusion cerebral infarction models after transient obstruction of middle cerebral artery
The effect of the growth hormone secretion promoting substance was evaluated using ischemia-reperfusion cerebral infarction models, which are general pathological models of diseases involving degeneration or death of nerve cells, such as cerebral ischemia, cerebral infarction and cerebral edema. KP-102 was used as a typical example of the growth hormone secretion promoting substance.
KP-102 (synthetic product) was dissolved in physiological saline (JP) to a concentration of 24 μg/ml. Other reagents used were halothane (JP: Takeda Chem. Ind.), triphenyltetrazolium chloride (TTC, Nacalai tesque), Dulbecco PBS(−) (Nissui Pharmaceutical) and low viscosity dental impression silicone (XANTOPRENRL, imported by Hereus Dental Material, Osaka). A 1% TTC solution was prepared by dissolving TTC in an isotonic phosphate buffer solution (pH 7.4) which had been prepared by dissolving PBS(−) powder in distilled water.
Male Wistar rats (Charles River Japan, INC.), 9 weeks old and weighing about 300 g, were used as experimental animals.
Obstruction of the middle cerebral artery was performed in accordance with the method of Koizumi et al. (Jpn. J. Stroke (1986)8:1-8) and the method of Longa et al. (Stroke (1989)20:84-91). Anesthesia was performed with 2% halothane in a 30% oxygen/70% nitrous oxide mixed gas. A cannula for administration of a test material had been inserted into the right femoral vein, and the other end of the cannula delivered to the poll. After several hours or more, the animals were anesthetized again, and set in a supine position. A median incision of the neck was made, and connective tissues around the right common carotid artery, the internal carotid artery, and the external carotid artery were ablated. The distal end of the external carotid artery and the external carotid artery were ligated with a suture, and blood flow in the common carotid artery was blocked with a clip. The following procedure was performed, with measures for prevention of bleeding being taken: A small incision was made in the external carotid artery, and a plug comprising a 5 mm front end of a surgical 4-0 nylon thread coated with dental silicone was inserted toward the internal carotid artery as far as a site where a slight resistance was felt. As a result, the middle cerebral artery (hereinafter referred to as MCA) was occluded, at its point of origin, with the plug. The plug was fixed in the internal carotid artery with a clip. The incision wound was closed and anesthesia was stopped to awake the animals. Anesthesia was performed again 70 minutes after MCA occlusion, the plug was detached 75 minutes later to restore blood flow in MCA, and the end of the external carotid artery proximal to the incision site was closed for prevention of bleeding. Blood flow in the common carotid artery was restored 10 minutes later. The incision site of the skin was closed with a Michel needle, and the animals were recovered from anesthesia.
The cannula for administration of the test material was connected to a free moving device (TCS2-21, Tsumura). […]

[3] = influence on blood pressure and heart rate; conditions: in vivo
[4] = KP-102 total 0.16 mg/kg i.v., 72 hours after reperfusion, FIG. 1

## CC(C)(C)C(=O)N1CCC[C@H]1C(=O)N[C@H](Cc1ccc2ccccc2c1)C(=O)NCC(O)CN (stereo partly drawn) [S-38855, N-(3-amino-2-hydroxypropyl)-2(R)-[1-(2,2-dimethylpropionyl)pyrrolidine-2(S)-carbonylamino]-3-naphthalen-2-yl-propionamide]
[1]
  inhibition of cell death induced by ionomycin at a single concentration: clear action of inhibiting cell death

## C[C@H](NC(=O)[C@@H](Cc1ccc2ccccc2c1)NC(=O)[C@@H](C)N)C(=O)N[C@@H](Cc1c[nH]c2ccccc12)C(=O)N[C@H](Cc1ccccc1)C(=O)N[C@@H](CCCCN)C(N)=O [KP-102, D-alanyl-3-(2-naphthalenyl)-D-alanyl-L-alanyl-L-tryptophyl-D-phenylalanyl-L-lysineamide] (H-[dA][d2Nal]AW[dF]K-NH2)
[2]; [4]
  cerebral infarct size, cortex: effect of shrinking the infarct was observed
  cerebral infarct size, medulla: effect of shrinking the infarct was observed
[2]; vs control group, KP-102 total 0.16 mg/kg i.v. infusion beginning 30 minutes after MCA occlusion, 72 hours after reperfusion, FIG. 1, P<0.05 Mann-Whitney
  percent cerebral infarction volume for the entire cerebrum: significantly smaller
[2]; vs control group, KP-102 total 0.16 mg/kg i.v., 72 hours after reperfusion, FIG. 2, no significant differences, P=0.087
  percent edema: tendency toward suppression
[2]; vs control group, KP-102 total 0.16 mg/kg i.v., after reperfusion, normal score 33 points, FIG. 3, P<0.05
  score of neurologic symptoms: significantly higher
[3]
  influence on blood pressure: does not influence
  influence on heart rate: does not influence
[1]; applied 30 minutes after replacement of the ionomycin-treated culture medium, FIG. 4b
  inhibition of cell death, compound applied after ionomycin treatment: cell death inhibiting action was also confirmed
[1]; concentrations of 0.01 to 1 μM, dose-dependent, FIG. 4a
  inhibition of cell death induced by 3 μM of ionomycin, compound applied 30 minutes before ionomycin: inhibited cell death

## CCC(CC)C(=O)N1CCC[C@@H]1C(=O)N[C@@H](Cc1ccc2ccccc2c1)C(=O)NCC(O)CN (stereo partly drawn) [S-39100, N-(3-amino-2-hydroxypropyl)-2(S)-[1-(2-ethylbutyryl)pyrrolidine-2(R)-carbonylamino]-3-naphthalen-2-yl-propionamide]
[1]
  inhibition of cell death induced by ionomycin at a single concentration: clear action of inhibiting cell death

## Cc1[nH]c2ccccc2c1C[C@@H](NC(=O)[C@@H](N)Cc1c[nH]cn1)C(=O)N[C@@H](C)C(=O)N[C@@H](Cc1c[nH]c2ccccc12)C(=O)N[C@H](Cc1ccccc1)C(=O)N[C@@H](CCCCN)C(N)=O [hexarelin, L-histidyl-2-methyl-D-tryptophyl-L-alanyl-L-tryptophyl-D-phenylalanyl-L-lysineamide, reference compound] (H-H[dTrp(2-Me)]AW[dF]K-NH2)
[1]
  inhibition of cell death induced by ionomycin at a single concentration: clear action of inhibiting cell death

## NCC(O)CNC(=O)[C@@H](Cc1ccc2ccccc2c1)NC(=O)CCN1C(=O)c2ccccc2CCc2ccccc21 (stereo partly drawn) [S-37555, N-[1(R)-(3-amino-2-hydroxy-propylcarbamoyl)-2-yl-ethyl]-3-(6-oxo-11,12-dihydro-6H-dibenzo[b,f]azocinn-5-yl)-propionamide]
[1]
  inhibition of cell death induced by ionomycin at a single concentration: clear action of inhibiting cell death
